Data: patent US20250051319A1 (AUGUSTINE THERAPEUTICS, priority 2021, published 2025)

Legend:
[1] = molecular target: T1, human full-length recombinant HDAC6 (Homo sapiens (Human), UniProt Q9UBN7); experiment: HDAC6 enzymatic activity assay (Reaction Biology Corporation, RHKKAc fluorogenic peptide); format: biochemical; details: Reaction Biology Corporation protocol, RHKKAc fluorogenic peptide 10 μM; read-out: HDAC6 biochem
Method: (§1) Dose response testing of HDAC6 and HDAC 1 were run at Reaction Biology Corporation (RBC). Inhibition of HDAC enzymes was performed using N-terminal GST tagged human full-length recombinant HDAC6 (H88-30G, SignalChem) and C-terminal FLAG His tag human full-length recombinant HDAC1 produced in insect cells (KDA-21-365, RBC). Enzyme reactions were run in 50 mM Tris-HCl, pH8.0, 137 mM NaCl, 2.7 mM KCl, and 1 mM MgCl2 with 1 mg/ml BSA, 1% DMSO freshly added. 2× enzyme was delivered in the wells of the reaction plate except for the “no enzyme” control wells. In the latter, buffer was added. Compounds in 100% DMSO were delved into the enzyme mixture by acoustic technology (Echo550). Plates are spun down and compounds were incubation with the enzyme for 10 min at room temperature. 2× Fluorogenic peptide from p53 residues 379-382 (RHKKAc, 10 μM final concentration) was added in all wells to initiate the reaction, followed by 1 h incubation at 30° C. Developer containing Trichostatin A was added to stop the reaction and generate fluorescent color. A kinetic measurement was carried out for 20 min with 5 min interval on the Envision plate reader (Perkin Elmer, Ex/Em=360/460). End point reading i.e., plateau of the development reaction was used for analysis. Data was reported by RBC as percentage enzyme activity. Percentage inhibition was calculated by subtracting percentage enzyme activity from 100. IC50 values were calculated using GraphPad Prism 9 based on the log(inhibitor) vs. response—Variable slope (four parameters) equation.

[2] = molecular target: catalytic domain 2 (CD2) of HDAC6 (Homo sapiens (Human), UniProt Q9UBN7); experiment: Cellular target engagement assay - NanoBRET; format: cell-based; details: NanoLuc-HDAC6(CD2) in HEK293T cells, 2 hours, read-out: IC50 (HDAC6(CD2) interaction)
Sequence of catalytic domain 2 (CD2) of HDAC6 (Q9UBN7 482-800): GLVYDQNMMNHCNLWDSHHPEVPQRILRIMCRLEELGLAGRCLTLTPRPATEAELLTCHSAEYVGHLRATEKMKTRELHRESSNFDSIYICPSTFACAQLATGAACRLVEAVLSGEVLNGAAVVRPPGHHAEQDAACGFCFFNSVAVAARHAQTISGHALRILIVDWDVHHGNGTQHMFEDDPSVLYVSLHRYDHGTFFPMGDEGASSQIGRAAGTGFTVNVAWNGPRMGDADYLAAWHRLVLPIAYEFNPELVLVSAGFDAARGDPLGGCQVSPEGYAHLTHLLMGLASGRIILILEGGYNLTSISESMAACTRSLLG

[3] = molecular target: T2, human full-length recombinant HDAC1 (Homo sapiens (Human), UniProt Q13547); experiment: HDAC1 enzymatic activity assay (Reaction Biology Corporation, RHKKAc fluorogenic peptide); format: biochemical; details: Reaction Biology Corporation protocol, RHKKAc fluorogenic peptide 10 μM; read-out: HDAC1 biochem
T2 sequence (Q13547 whole entry): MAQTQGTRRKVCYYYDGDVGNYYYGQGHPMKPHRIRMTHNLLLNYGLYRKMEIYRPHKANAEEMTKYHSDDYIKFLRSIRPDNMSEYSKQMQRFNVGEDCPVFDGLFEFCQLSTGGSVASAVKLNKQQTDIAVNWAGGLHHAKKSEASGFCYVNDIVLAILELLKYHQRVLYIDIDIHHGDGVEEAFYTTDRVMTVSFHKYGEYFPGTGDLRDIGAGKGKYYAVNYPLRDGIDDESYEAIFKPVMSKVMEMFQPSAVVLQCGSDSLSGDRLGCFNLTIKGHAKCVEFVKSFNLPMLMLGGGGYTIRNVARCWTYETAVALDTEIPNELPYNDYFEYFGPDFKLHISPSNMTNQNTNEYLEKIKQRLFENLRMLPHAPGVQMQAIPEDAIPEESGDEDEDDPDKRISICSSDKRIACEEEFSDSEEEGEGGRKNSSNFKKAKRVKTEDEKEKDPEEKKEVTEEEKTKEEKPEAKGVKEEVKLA
Method: as §1

[4] = molecular target: T2, human full-length recombinant HDAC1; experiment: HDAC1 enzymatic activity assay (alternative protocol, Ac-Gly-Ala-Lys(Ac)-AMC); format: biochemical; details: 4 nM enzyme, read-out: HDAC1 biochem
Method: (§2) Inhibition of HDAC enzymes was performed in 384-well plate format using human full-length recombinant HDAC1 and HDAC6, isolated from a baculovirus expression system in Sf9 cells (BPS Bioscience). Reaction buffer for HDAC1 contained 50 mM Tris HCl pH 8.0, 137 mM NaCl, 2.7 mM KCl, 1 mM MgCl2, 0.1 mg/mL BSA, and reaction buffer for HDAC6 contained 50 mM Tris/HCl, pH 8.0, 137 mM NaCl, 2.7 mM KCl, 250 μM EDTA, 1 mM DTT, 0.1 mg/mL BSA. Compounds (dissolved in 100% DMSO) or DMSO (vehicle) were diluted in assay buffer at 3× final assay concentration and then added to assay plates. SAHA ([…]) was used as a positive control. 3× final assay concentration of recombinant enzymes (final assay concentration is 4 nM and 5 nM for HDAC1 and HDAC6, respectively) were preincubated for 10 minutes with test compounds at room temperature. Afterwards, 3× final assay concentration of an acetylated fluorogenic peptide (Ac-Gly-Ala-Lys(Ac))-AMC, Bachem; final assay concentration is 12 µM and 40 µM for HDAC1 and HDAC6, respectively) was added to assay plate, allowing deacetylase reactions to incubate for 60 minutes at room temperature. The developer reagent containing 5 μM SAHA and 50 μM trypsin was added to stop the deacetylase reaction and generate AMNC-fluorescence. 15 minutes after addition of developer reagent, endpoint measurements were taken using CLARIOstar (BMG Labtech) plate reader (excitation/emission: 360/450). Fluorescence signals were normalized for each plate using GraphPad Prism software: reaction HDAC-substrate in presence of DMSO was set to 100% while reaction HDAC-substrate in presence of 10 μM SAHA was set to 0%.

[5] = molecular target: T1, human full-length recombinant HDAC6; experiment: HDAC6 enzymatic activity assay (alternative protocol, Ac-Gly-Ala-Lys(Ac)-AMC); format: biochemical; details: 5 nM enzyme, read-out: HDAC6 biochem
Method: as §2

T1 sequence (Q9UBN7 whole entry): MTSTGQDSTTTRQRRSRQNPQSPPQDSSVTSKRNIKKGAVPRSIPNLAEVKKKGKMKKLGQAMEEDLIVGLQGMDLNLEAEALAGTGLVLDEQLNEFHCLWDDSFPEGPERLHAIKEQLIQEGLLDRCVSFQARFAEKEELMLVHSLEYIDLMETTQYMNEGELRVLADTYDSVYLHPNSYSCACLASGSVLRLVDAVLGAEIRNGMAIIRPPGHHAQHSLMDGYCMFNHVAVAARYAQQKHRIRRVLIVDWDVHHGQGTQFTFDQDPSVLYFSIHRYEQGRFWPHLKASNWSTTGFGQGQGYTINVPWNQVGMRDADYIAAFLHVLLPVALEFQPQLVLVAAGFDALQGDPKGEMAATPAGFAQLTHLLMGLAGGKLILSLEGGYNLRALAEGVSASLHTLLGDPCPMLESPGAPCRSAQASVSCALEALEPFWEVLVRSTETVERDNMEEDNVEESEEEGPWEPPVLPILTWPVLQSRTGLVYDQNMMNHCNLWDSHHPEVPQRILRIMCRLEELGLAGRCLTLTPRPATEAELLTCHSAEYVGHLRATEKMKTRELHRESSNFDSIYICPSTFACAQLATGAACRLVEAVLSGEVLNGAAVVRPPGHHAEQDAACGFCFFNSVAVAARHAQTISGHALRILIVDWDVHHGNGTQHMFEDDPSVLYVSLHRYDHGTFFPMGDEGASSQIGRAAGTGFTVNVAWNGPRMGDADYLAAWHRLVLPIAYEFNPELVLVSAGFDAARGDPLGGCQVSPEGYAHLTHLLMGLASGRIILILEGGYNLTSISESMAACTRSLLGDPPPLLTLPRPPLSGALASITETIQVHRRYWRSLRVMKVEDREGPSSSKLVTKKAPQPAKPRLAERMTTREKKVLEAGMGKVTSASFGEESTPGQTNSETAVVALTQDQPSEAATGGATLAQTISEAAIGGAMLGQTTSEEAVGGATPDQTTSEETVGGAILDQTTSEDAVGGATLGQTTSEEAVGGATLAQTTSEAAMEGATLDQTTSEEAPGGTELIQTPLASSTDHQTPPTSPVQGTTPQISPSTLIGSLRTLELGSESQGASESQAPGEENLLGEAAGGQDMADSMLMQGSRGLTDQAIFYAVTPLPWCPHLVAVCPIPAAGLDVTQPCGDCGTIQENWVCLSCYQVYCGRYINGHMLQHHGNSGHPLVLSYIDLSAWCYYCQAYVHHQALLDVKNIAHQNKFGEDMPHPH

Compound	IC50 [1] [nM]	IC50 [2] [nM]	IC50 [3] [µM]	IC50 [4] [µM]	IC50 [5] [nM]
Cn1cc2c(SCC(=O)c3ccc(CNC(=O)CO)s3)nc(C(F)F)nc2n1 [Compound 69, N-((5-(2-((6-(difluoromethyl)-2-methyl-2H-pyrazolo[3,4-d]pyrimidin-4-yl)thio)acetyl)thiophen-2-yl)methyl)-2-hydroxyacetamide]	≤ 100	100 to 500			
COc1cc2c(SCC(=O)c3ccc(CNC(=O)CO)s3)nc(C)nc2cc1F [Compound 75, N-((5-(2-((7-fluoro-6-methoxy-2-methylquinazolin-4-yl)thio)acetyl)thiophen-2-yl)methyl)-2-hydroxyacetamide]			> 10		
COc1cc(F)c2nc(C)nc(SCC(=O)c3ccc(CNC(=O)CO)s3)c2c1 [Compound 108, N-((5-(2-((8-fluoro-6-methoxy-2-methylquinazolin-4-yl)thio)acetyl)thiophen-2-yl)methyl)-2-hydroxyacetamide]	≤ 100	100 to 500			
COc1ccc2nc(C)nc(SCC(=O)c3ccc(CN(C)C(=O)CO)s3)c2c1 [Compound 109, 2-hydroxy-N-((5-(2-((6-methoxy-2-methylquinazolin-4-yl)thio)acetyl)thiophen-2-yl)methyl)-N-methylacetamide]	≤ 100	500 to 1000			
CN(Cc1ccc(C(=O)CSc2nc(C(F)(F)F)nc3nn(C)cc23)s1)C(=O)CO [Compound 116, 2-hydroxy-N-methyl-N-((5-(2-((2-methyl-6-(trifluoromethyl)-2H-pyrazolo[3,4-d]pyrimidin-4-yl)thio)acetyl)thiophen-2-yl)methyl)acetamide]	≤ 100	100 to 500			
Cc1nc(SCC(=O)c2ccc(CNC(=O)CO)s2)c2ncccc2n1 [Compound 153, 2-hydroxy-N-((5-(2-((2-methylpyrido[3,2-d]pyrimidin-4-yl)thio)acetyl)thiophen-2-yl)methyl)acetamide]	≤ 100	≤ 100			
COc1cc2c(SCC(=O)c3ccc(CNC(=O)CO)s3)nc(C(F)(F)F)nc2cn1 [Compound 154, 2-hydroxy-N-((5-(2-((6-methoxy-2-(trifluoromethyl)pyrido[3,4-d]pyrimidin-4-yl)thio)acetyl)thiophen-2-yl)methyl)acetamide]	≤ 100	≤ 100			
COc1ccc2nc(C)nc(SCC(=O)c3ccc(CNC(=O)CO)s3)c2c1F [Compound 158, N-((5-(2-((5-fluoro-6-methoxy-2-methylquinazolin-4-yl)thio)acetyl)thiophen-2-yl)methyl)-2-hydroxyacetamide]	≤ 100	≤ 100			
COc1cc2c(SCC(=O)c3ccc(CN(C)C(=O)CO)s3)nc(C(F)(F)F)nc2cn1 [Compound 159, 2-hydroxy-N-((5-(2-((6-methoxy-2-(trifluoromethyl)pyrido[3,4-d]pyrimidin-4-yl)thio)acetyl)thiophen-2-yl)methyl)-N-methylacetamide]	≤ 100	≤ 100			
CCOc1cnc2nc(C)nc(SCC(=O)c3ccc(CNC(=O)CO)s3)c2c1 [Compound 160, N-((5-(2-((6-ethoxy-2-methylpyrido[2,3-d]pyrimidin-4-yl)thio)acetyl)thiophen-2-yl)methyl)-2-hydroxyacetamide]	≤ 100	≤ 100			
COc1cnc2nc(C(F)F)nc(SCC(=O)c3ccc(CNC(=O)CO)s3)c2c1 [Compound 164, N-((5-(2-((2-(difluoromethyl)-6-methoxypyrido[2,3-d]pyrimidin-4-yl)thio)acetyl)thiophen-2-yl)methyl)-2-hydroxyacetamide]	≤ 100	≤ 100			
O=C(CSc1nc(C(F)(F)F)nc2ccccc12)c1ccc(CCN2CCCC2=O)s1 [Example 26, 1-(2-(5-(2-((2-(trifluoromethyl)quinazolin-4-yl)thio)acetyl)thiophen-2-yl)ethyl)pyrrolidin-2-one]		100 to 500		> 10	≤ 100
Cn1ncc2c(SCC(=O)c3cc(F)c(CNC(=O)C(C)(C)C)s3)ncnc21 [Example 28, N-((3-fluoro-5-(2-((1-methyl-1H-pyrazolo[3,4-d]pyrimidin-4-yl)thio)acetyl)thiophen-2-yl)methyl)pivalamide]		500 to 1000		> 10	≤ 100
CC(C)(C)C(=O)NCCc1ccc(C(=O)CSc2nc(C(F)(F)F)nc3ccccc23)s1 [Example 29, N-(2-(5-(2-((2-(trifluoromethyl)quinazolin-4-yl)thio)acetyl)thiophen-2-yl)ethyl)pivalamide]		100 to 500		> 10	≤ 100
Cn1ncc2c(SCC(=O)c3ccc(CNC(=O)c4ccccc4)s3)ncnc21 [Example 30, N-((5-(2-((1-methyl-1H-pyrazolo[3,4-d]pyrimidin-4-yl)thio)acetyl)thiophen-2-yl)methyl)benzamide]		≤ 100		> 10	≤ 100
CN(Cc1ccc(C(=O)CSc2ncnc3c2cnn3C)s1)C(=O)C(C)(C)C [Example 33, N-methyl-N-((5-(2-((1-methyl-1H-pyrazolo[3,4-d]pyrimidin-4-yl)thio)acetyl)thiophen-2-yl)methyl)pivalamide]		100 to 500		> 10	≤ 100
CN(Cc1ccc(C(=O)CSc2ncnc3c2cnn3C)s1)C(=O)C1CC1 [Example 34, N-methyl-N-((5-(2-((1-methyl-1H-pyrazolo[3,4-d]pyrimidin-4-yl)thio)acetyl)thiophen-2-yl)methyl)cyclopropanecarboxamide]		100 to 500		> 10	≤ 100
Cc1nc(SCC(=O)c2ccc(CNC(=O)C3CC3)s2)c2ccccc2n1 [Example 35, N-((5-(2-((2-methylquinazolin-4-yl)thio)acetyl)thiophen-2-yl)methyl)cyclopropanecarboxamide]		100 to 500		> 10	≤ 100
O=C(CSc1nc(C(F)(F)F)nc2ccccc12)c1ccc(CCNC(=O)C2CC2)s1 [Example 36, N-(2-(5-(2-((2-(trifluoromethyl)quinazolin-4-yl)thio)acetyl)thiophen-2-yl)ethyl)cyclopropanecarboxamide]		≤ 100		> 10	≤ 100
O=C(NCCc1ccc(C(=O)CSc2nc(C(F)(F)F)nc3ccccc23)s1)c1ccccc1 [Example 37, N-(2-(5-(2-((2-(trifluoromethyl)quinazolin-4-yl)thio)acetyl)thiophen-2-yl)ethyl)benzamide]		1000 to 10000		> 10	≤ 100
CC(C)(C)C(=O)NCc1ccc(C(=O)CSc2nc(C(F)(F)F)nc3ccccc23)s1 [Example 38, N-((5-(2-((2-(trifluoromethyl)quinazolin-4-yl)thio)acetyl)thiophen-2-yl)methyl)pivalamide]		≤ 100		> 10	≤ 100
CC(C)(C)C(=O)NCc1ccc(C(=O)CSc2nncc3ccccc23)s1 [Example 193, N-((5-(2-(phthalazin-1-ylthio)acetyl)thiophen-2-yl)methyl)pivalamide]		100 to 500		> 10	≤ 100
Cc1nnc(SCC(=O)c2ccc(CNC(=O)C(C)(C)C)s2)c2ccccc12 [Example 194, N-((5-(2-((4-methylphthalazin-1-yl)thio)acetyl)thiophen-2-yl)methyl)pivalamide]		100 to 500		> 10	≤ 100
